The NIST ThermoML archive (doi:10.1016/j.jct.2016.07.012)
Numbers after ± are expanded uncertainties.

Assay: molar heat capacity at constant pressure
Conditions: 101.33 kPa, Metastable crystal, Small (less than 1 g) adiabatic calorimetry

With `CCCCn1cc[n+](C)c1.F[P-](F)(F)(F)(F)F` [1-butyl-3-methylimidazolium hexafluorophosphate] as the molecule, how does the “molar heat capacity at constant pressure” value (125.32 K) read?
Its value is 185.9 ± 1 J/K/mol.

And the “molar heat capacity at constant pressure” value (127.15 K)?
Its value is 191.2 ± 1 J/K/mol.

What about the “molar heat capacity at constant pressure” value (127.23 K) of the same molecule?
Its value is 188.2 ± 1 J/K/mol.

What about the “molar heat capacity at constant pressure” value (129.05 K) of the same molecule?
The value was 193.4 ± 1 J/K/mol.

What about the “molar heat capacity at constant pressure” value (129.15 K) of the same molecule?
The value was 190.5 ± 1 J/K/mol.

What about the “molar heat capacity at constant pressure” value (130.95 K) of the same molecule?
The value was 195.6 ± 1 J/K/mol.

And the “molar heat capacity at constant pressure” value (131.06 K)?
Its value is 192.8 ± 1 J/K/mol.

And the “molar heat capacity at constant pressure” value (132.85 K)?
The value was 197.9 ± 1.1 J/K/mol.

And the “molar heat capacity at constant pressure” value (132.97 K)?
The value was 195.1 ± 1 J/K/mol.

What about the “molar heat capacity at constant pressure” value (134.75 K) of the same molecule?
The value was 200.2 ± 1.1 J/K/mol.

And the “molar heat capacity at constant pressure” value (134.88 K)?
Its value is 197.5 ± 1.1 J/K/mol.

And the “molar heat capacity at constant pressure” value (136.65 K)?
The value was 202.5 ± 1.1 J/K/mol.

What about the “molar heat capacity at constant pressure” value (136.8 K) of the same molecule?
The value was 199.9 ± 1.1 J/K/mol.

What about the “molar heat capacity at constant pressure” value (138.55 K) of the same molecule?
The value was 204.9 ± 1.1 J/K/mol.

What about the “molar heat capacity at constant pressure” value (138.71 K) of the same molecule?
The value was 202.4 ± 1.1 J/K/mol.

And the “molar heat capacity at constant pressure” value (140.45 K)?
The value was 207.2 ± 1.1 J/K/mol.

And the “molar heat capacity at constant pressure” value (140.62 K)?
The value was 204.8 ± 1.1 J/K/mol.

What about the “molar heat capacity at constant pressure” value (142.35 K) of the same molecule?
Its value is 209.7 ± 1.1 J/K/mol.

And the “molar heat capacity at constant pressure” value (142.52 K)?
Its value is 207.4 ± 1.1 J/K/mol.

And the “molar heat capacity at constant pressure” value (144.24 K)?
The value was 212.3 ± 1.1 J/K/mol.

What about the “molar heat capacity at constant pressure” value (144.42 K) of the same molecule?
Its value is 209.9 ± 1.1 J/K/mol.

What about the “molar heat capacity at constant pressure” value (146.13 K) of the same molecule?
The value was 214.9 ± 1.1 J/K/mol.

And the “molar heat capacity at constant pressure” value (146.33 K)?
The value was 212.5 ± 1.1 J/K/mol.

What about the “molar heat capacity at constant pressure” value (148.01 K) of the same molecule?
The value was 217.6 ± 1.2 J/K/mol.

And the “molar heat capacity at constant pressure” value (148.23 K)?
The value was 215.1 ± 1.1 J/K/mol.

And the “molar heat capacity at constant pressure” value (149.9 K)?
Its value is 220.4 ± 1.2 J/K/mol.

What about the “molar heat capacity at constant pressure” value (150.13 K) of the same molecule?
The value was 217.7 ± 1.2 J/K/mol.

And the “molar heat capacity at constant pressure” value (151.78 K)?
The value was 223.4 ± 1.2 J/K/mol.

And the “molar heat capacity at constant pressure” value (152.02 K)?
The value was 220.4 ± 1.2 J/K/mol.

What about the “molar heat capacity at constant pressure” value (153.65 K) of the same molecule?
Its value is 226.5 ± 1.2 J/K/mol.

And the “molar heat capacity at constant pressure” value (153.91 K)?
The value was 223.1 ± 1.2 J/K/mol.

And the “molar heat capacity at constant pressure” value (155.52 K)?
Its value is 229.7 ± 1.2 J/K/mol.

And the “molar heat capacity at constant pressure” value (155.79 K)?
Its value is 225.9 ± 1.2 J/K/mol.

And the “molar heat capacity at constant pressure” value (157.39 K)?
Its value is 233.2 ± 1.2 J/K/mol.

What about the “molar heat capacity at constant pressure” value (157.67 K) of the same molecule?
The value was 228.7 ± 1.2 J/K/mol.

And the “molar heat capacity at constant pressure” value (159.24 K)?
The value was 236.9 ± 1.2 J/K/mol.

And the “molar heat capacity at constant pressure” value (159.55 K)?
The value was 231.5 ± 1.2 J/K/mol.

And the “molar heat capacity at constant pressure” value (161.09 K)?
Its value is 241 ± 1.3 J/K/mol.

What about the “molar heat capacity at constant pressure” value (161.42 K) of the same molecule?
Its value is 234.4 ± 1.2 J/K/mol.

What about the “molar heat capacity at constant pressure” value (162.93 K) of the same molecule?
The value was 245.5 ± 1.3 J/K/mol.

What about the “molar heat capacity at constant pressure” value (163.29 K) of the same molecule?
The value was 237.3 ± 1.3 J/K/mol.

What about the “molar heat capacity at constant pressure” value (164.76 K) of the same molecule?
Its value is 250.5 ± 1.3 J/K/mol.

And the “molar heat capacity at constant pressure” value (165.15 K)?
The value was 240.3 ± 1.3 J/K/mol.

What about the “molar heat capacity at constant pressure” value (166.58 K) of the same molecule?
Its value is 256.4 ± 1.3 J/K/mol.

What about the “molar heat capacity at constant pressure” value (167.01 K) of the same molecule?
Its value is 243.2 ± 1.3 J/K/mol.

And the “molar heat capacity at constant pressure” value (168.38 K)?
The value was 263.5 ± 1.4 J/K/mol.

And the “molar heat capacity at constant pressure” value (168.87 K)?
The value was 246.3 ± 1.3 J/K/mol.

And the “molar heat capacity at constant pressure” value (170.16 K)?
The value was 272.5 ± 1.4 J/K/mol.

What about the “molar heat capacity at constant pressure” value (170.71 K) of the same molecule?
The value was 249.4 ± 1.3 J/K/mol.

And the “molar heat capacity at constant pressure” value (171.91 K)?
Its value is 285.3 ± 1.5 J/K/mol.

What about the “molar heat capacity at constant pressure” value (172.55 K) of the same molecule?
Its value is 252.6 ± 1.3 J/K/mol.

And the “molar heat capacity at constant pressure” value (173.61 K)?
Its value is 306.7 ± 1.7 J/K/mol.

What about the “molar heat capacity at constant pressure” value (174.39 K) of the same molecule?
The value was 256.1 ± 1.3 J/K/mol.

What about the “molar heat capacity at constant pressure” value (175.22 K) of the same molecule?
Its value is 360.5 ± 2.1 J/K/mol.

What about the “molar heat capacity at constant pressure” value (176.22 K) of the same molecule?
The value was 258.9 ± 1.4 J/K/mol.

What about the “molar heat capacity at constant pressure” value (176.68 K) of the same molecule?
Its value is 448.8 ± 2.6 J/K/mol.

What about the “molar heat capacity at constant pressure” value (178.04 K) of the same molecule?
The value was 260.8 ± 1.4 J/K/mol.

And the “molar heat capacity at constant pressure” value (178.27 K)?
The value was 265.8 ± 1.4 J/K/mol.

What about the “molar heat capacity at constant pressure” value (179.86 K) of the same molecule?
Its value is 263.5 ± 1.4 J/K/mol.

What about the “molar heat capacity at constant pressure” value (180.09 K) of the same molecule?
Its value is 261.1 ± 1.4 J/K/mol.

And the “molar heat capacity at constant pressure” value (181.68 K)?
The value was 266.1 ± 1.4 J/K/mol.

What about the “molar heat capacity at constant pressure” value (181.91 K) of the same molecule?
The value was 261.4 ± 1.4 J/K/mol.

What about the “molar heat capacity at constant pressure” value (183.5 K) of the same molecule?
The value was 268.6 ± 1.4 J/K/mol.

What about the “molar heat capacity at constant pressure” value (183.75 K) of the same molecule?
The value was 262.7 ± 1.4 J/K/mol.

And the “molar heat capacity at constant pressure” value (185.31 K)?
Its value is 270.9 ± 1.4 J/K/mol.

And the “molar heat capacity at constant pressure” value (185.58 K)?
The value was 264.6 ± 1.4 J/K/mol.

And the “molar heat capacity at constant pressure” value (187.12 K)?
The value was 273 ± 1.4 J/K/mol.

What about the “molar heat capacity at constant pressure” value (187.4 K) of the same molecule?
The value was 266.8 ± 1.4 J/K/mol.

And the “molar heat capacity at constant pressure” value (188.92 K)?
Its value is 274.8 ± 1.4 J/K/mol.

And the “molar heat capacity at constant pressure” value (189.22 K)?
The value was 269.2 ± 1.4 J/K/mol.

What about the “molar heat capacity at constant pressure” value (190.72 K) of the same molecule?
Its value is 276.4 ± 1.4 J/K/mol.

What about the “molar heat capacity at constant pressure” value (191.04 K) of the same molecule?
The value was 271.8 ± 1.4 J/K/mol.

What about the “molar heat capacity at constant pressure” value (192.53 K) of the same molecule?
Its value is 277.7 ± 1.4 J/K/mol.

And the “molar heat capacity at constant pressure” value (192.86 K)?
The value was 274.6 ± 1.4 J/K/mol.

What about the “molar heat capacity at constant pressure” value (194.33 K) of the same molecule?
Its value is 278.7 ± 1.5 J/K/mol.

What about the “molar heat capacity at constant pressure” value (194.66 K) of the same molecule?
Its value is 277.6 ± 1.4 J/K/mol.

What about the “molar heat capacity at constant pressure” value (196.13 K) of the same molecule?
Its value is 279.3 ± 1.5 J/K/mol.

And the “molar heat capacity at constant pressure” value (196.47 K)?
The value was 280.8 ± 1.5 J/K/mol.

What about the “molar heat capacity at constant pressure” value (197.94 K) of the same molecule?
The value was 279.8 ± 1.5 J/K/mol.

And the “molar heat capacity at constant pressure” value (198.27 K)?
The value was 284.1 ± 1.5 J/K/mol.

What about the “molar heat capacity at constant pressure” value (199.74 K) of the same molecule?
Its value is 280 ± 1.5 J/K/mol.

What about the “molar heat capacity at constant pressure” value (200.05 K) of the same molecule?
The value was 287.7 ± 1.5 J/K/mol.
